# Assay results from patent US11447534B2, “Peptide complex with immunodulatory and anti-inflammatory function” (NATIONAL INSTITUTE OF IMMUNOLOGY, priority 2018, dated 2022).
# Key:
# [1] = test system: ConA activated macrophages; assay: qPCR in ConA activated macrophages; format: cell-based, murine
# Procedure: To determine the immunomodulatory effect of A-O complex, serum starved macrophages were exposed to the complex. Macrophages (1×10^6 cells) were serum starved for 30 min after which cells were exposed to A-O complex. After 1 hour, cells were washed with 1×PBS (pH 7.4) and harvested using cell dissociation solution. Then the cells were suspended in ice cold staining buffer (100 μl) and centrifuged at 1000 rpm for 5 min at 4° C. The cells were resuspended in 100 μl ice cold staining buffer for 10 min at 2-8° C. and pellet resuspended in 50 μl staining media. To this 2 μl of Fc block or anti-mouse CD16/CD32 was added for 10 mins and washed with staining buffer. The cells were resuspended in 50 μl of staining buffer and incubated with fluorescent-tagged CD36 antibody (e-biosciences) for 25-30 min on ice. The excess stain was removed by washing and pelleting down using staining buffer thrice by spinning and removal of staining buffer. The cell suspension was fixed 1:1 ratio (staining buffer:fixative) and analysed within 48 h in ARIA3 DIVA software version 6.1. Further, expression of MHC-II, and CD-36, was also determined in the microglial cells via qPCR. For this RNA extraction was performed using RNA extraction kit from Qiagen according to the manufacturer's instruction. cDNA synthesis was performed using cDNA synthesis kit from Qiagen. […] Following amplification, fold changes in gene expression versus β-actin (reference) analysis was determined using the 2^ΔΔCT(Livak) method. To determine the immunomodulatory effect of A-O complex on activated macrophages, macrophages were activated with Concanavalin-A (Con-A), for 30 minutes and the changes in mRNA levels of Cd36, Lrp1, Cd11b, Cd74 and Apoe were analyzed by qPCR.
# [2] = test system: ConA stimulated EOC20 microglia; assay: F-actin staining and qPCR in ConA stimulated EOC20 microglia; format: cell-based
# Procedure: To determine the immunomodulatory effect of A-O complex, serum starved macrophages were exposed to the complex. Macrophages (1×10^6 cells) were serum starved for 30 min after which cells were exposed to A-O complex. After 1 hour, cells were washed with 1×PBS (pH 7.4) and harvested using cell dissociation solution. Then the cells were suspended in ice cold staining buffer (100 μl) and centrifuged at 1000 rpm for 5 min at 4° C. The cells were resuspended in 100 μl ice cold staining buffer for 10 min at 2-8° C. and pellet resuspended in 50 μl staining media. To this 2 μl of Fc block or anti-mouse CD16/CD32 was added for 10 mins and washed with staining buffer. The cells were resuspended in 50 μl of staining buffer and incubated with fluorescent-tagged CD36 antibody (e-biosciences) for 25-30 min on ice. The excess stain was removed by washing and pelleting down using staining buffer thrice by spinning and removal of staining buffer. The cell suspension was fixed 1:1 ratio (staining buffer:fixative) and analysed within 48 h in ARIA3 DIVA software version 6.1. Further, expression of MHC-II, and CD-36, was also determined in the microglial cells via qPCR. For this RNA extraction was performed using RNA extraction kit from Qiagen according to the manufacturer's instruction. cDNA synthesis was performed using cDNA synthesis kit from Qiagen. To perform qPCR, 10 ng cDNA (per well) was amplified using the Light Cycler 480 Sybergreen I Master reagent (Roche Diagnostics, Indianapolis, Ind.) and primers (commercially purchased from SABiosciences, Qiagen) in the Light Cycler 480 (Roche Diagnostics, Switzerland) under following cycling conditions: 3 min at 95° C., 15 sec at 95° C., 20 sec at 60° C., 25 sec at 72° C. for 40 cycles. Following amplification, fold changes in gene expression versus β-actin (reference) analysis was determined using the 2^ΔΔCT(Livak) method.
# To determine the immunomodulatory effect of A-O complex in microglia, EOC20 microglial cells from ATCC (CRL-2469) was employed. The cells were cultured in high glucose Dulbecco's […] Essential Media (DMEM) containing 4 mM L-glutamine, 10% fetal bovine serum (FBS) and 20% LADMAC conditioned media. LADMAC media was prepared by growing 80% confluent LADMAC cell line from ATCC (CRL-2420) in alpha-minimal essential media supplemented with 10% FBS for 5 days. The spent supernatant was centrifuged at 1000 rpm for 10 min and the supernatant was filtered as used as LADMAC media. To determine the morphological changes in microglia upon exposure to A-O complex, F-actin confocal microscopy was performed. […]
# Next, immunomodulatory effect of A-O complex on activated microglial cells was determined. […] The immunomodulatory effect was assessed via F-actin staining and qPCR.
# [3] = test system: carrageenan challenged mice; assay: Carrageenan induced nitrite production in serum (Griess reaction); format: in vivo, mouse; conditions: 50 microgram of A-O complex, 3rd hour post carrageenan challenge
# Procedure: Measurement of nitric oxide in serum: Nitric oxide concentration in serum of carrageenan challenged mice with or without treatment was determined by the Griess reaction as an indicator of nitric oxide production as previously reported by Prado (2002) [Prado W A, Schiavon V F, Cunha F Q. Dual effect of local application of nitric oxide donors in a model of incision pain in rats. Eur J Pharmacol. 2002; 441:57-65]. Briefly, 100 microlitre of sera and 100 microlitre of Griess reagent (mix of 2% sulphanilamide in 5% phosphoric acid and 0.2% N(1-naphthyl) ethylenediamine hydrochloride) were mixed in 96-well ELISA plate and Absorbance was read at 550 nm. The concentration of nitrite was determined using a standard curve of sodium nitrite.
# [4] = ConA stimulated microglia, qPCR
substance,measurement,setting,value
"A-O complex: peptide complex of 100 μM Abeta1-42 (SEQ ID NO: 1) and 3 ng Glu-OC (SEQ ID NO: 2), incubated at 37° C. for 4 hours",mRNA level of Cd11b,[1],significantly reversed
same,mRNA level of Cd36,[1],significantly induced
same,mRNA level of Cd74,[1],significantly reversed
same,mRNA level of Cd11b,[2]; [4],normalized
same,mRNA level of Cd36,[2]; [4],induced
same,mRNA level of Tnfa,[2]; [4],normalized
same,microglia morphology (F-actin),"[2]; EOC20 microglia, ConA 30 mins then A-O complex 1 hour",presence of cells with ramified process
same,serum nitrite level,[3],maximal efficiency to reduce serum nitrite level
